Measurements reported in publication PMC8320619 (Current Research in Toxicology, 2020).

Biological target: T1, multidrug resistance associated protein 4 (MRP4) (Homo sapiens, UniProt O15439)
T1 sequence (O15439 1-1325): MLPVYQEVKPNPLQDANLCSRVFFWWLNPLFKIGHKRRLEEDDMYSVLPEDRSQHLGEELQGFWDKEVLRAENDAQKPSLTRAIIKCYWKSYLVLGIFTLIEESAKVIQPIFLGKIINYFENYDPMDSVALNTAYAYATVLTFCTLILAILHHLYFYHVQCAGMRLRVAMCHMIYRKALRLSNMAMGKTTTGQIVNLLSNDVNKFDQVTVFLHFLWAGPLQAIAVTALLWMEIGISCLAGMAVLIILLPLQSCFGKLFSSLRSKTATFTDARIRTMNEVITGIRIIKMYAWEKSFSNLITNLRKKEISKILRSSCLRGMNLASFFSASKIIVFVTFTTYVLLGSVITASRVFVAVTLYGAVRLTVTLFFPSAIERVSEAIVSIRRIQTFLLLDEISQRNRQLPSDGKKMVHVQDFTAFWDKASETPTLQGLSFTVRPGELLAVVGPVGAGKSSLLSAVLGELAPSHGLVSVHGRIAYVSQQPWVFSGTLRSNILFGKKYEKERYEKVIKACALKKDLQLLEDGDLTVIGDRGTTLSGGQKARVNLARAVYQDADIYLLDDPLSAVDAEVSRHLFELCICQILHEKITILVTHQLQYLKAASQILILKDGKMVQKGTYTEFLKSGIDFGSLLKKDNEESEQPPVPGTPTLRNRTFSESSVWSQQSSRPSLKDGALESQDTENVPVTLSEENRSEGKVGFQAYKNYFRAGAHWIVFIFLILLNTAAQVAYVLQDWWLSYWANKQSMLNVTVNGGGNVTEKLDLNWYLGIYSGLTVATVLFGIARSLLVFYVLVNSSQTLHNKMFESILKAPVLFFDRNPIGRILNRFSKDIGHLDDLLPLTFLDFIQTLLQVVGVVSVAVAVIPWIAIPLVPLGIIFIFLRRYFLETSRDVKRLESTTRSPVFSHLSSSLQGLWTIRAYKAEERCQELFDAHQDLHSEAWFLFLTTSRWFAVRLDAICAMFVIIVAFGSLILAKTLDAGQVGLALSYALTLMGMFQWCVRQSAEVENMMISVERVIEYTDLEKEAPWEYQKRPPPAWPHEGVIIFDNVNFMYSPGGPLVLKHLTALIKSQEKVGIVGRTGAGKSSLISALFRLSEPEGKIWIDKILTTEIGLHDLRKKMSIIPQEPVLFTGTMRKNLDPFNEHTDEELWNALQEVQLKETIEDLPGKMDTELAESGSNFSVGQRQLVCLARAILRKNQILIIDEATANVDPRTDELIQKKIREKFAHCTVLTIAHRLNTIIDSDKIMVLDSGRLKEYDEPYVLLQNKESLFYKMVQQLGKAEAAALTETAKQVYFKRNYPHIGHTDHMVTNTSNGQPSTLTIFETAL
Assay type: biochemical

IC50: 125 µM
Structure (SMILES): CC(=O)Nc1ccc(O)c(SC[C@H](N)C(=O)O)c1 [APAP-CYS, acetaminophen cysteine]
